Experimental data taken from patent US11226337B2, “Chemoproteomic profiling of protein electrophilic and oxidative post-translational modifications” (Zenagem, LLC, priority 2017, dated 2022).

Columns and labels:
Assay in all cases: SILAC RP-ABPP
Assay type in all cases: cell-based
[1] = biological target: T1, CYP27A1 Sterol 26hydroxylase, mitochondrial (Q02318) (Homo sapiens, UniProt Q02318); conditions: SILAC H/L, MDA-MB-231
T1 construct: endogenous in cells; host or cells: HEK293T or MDA-MB-231
T1 sequence (Q02318 34-531): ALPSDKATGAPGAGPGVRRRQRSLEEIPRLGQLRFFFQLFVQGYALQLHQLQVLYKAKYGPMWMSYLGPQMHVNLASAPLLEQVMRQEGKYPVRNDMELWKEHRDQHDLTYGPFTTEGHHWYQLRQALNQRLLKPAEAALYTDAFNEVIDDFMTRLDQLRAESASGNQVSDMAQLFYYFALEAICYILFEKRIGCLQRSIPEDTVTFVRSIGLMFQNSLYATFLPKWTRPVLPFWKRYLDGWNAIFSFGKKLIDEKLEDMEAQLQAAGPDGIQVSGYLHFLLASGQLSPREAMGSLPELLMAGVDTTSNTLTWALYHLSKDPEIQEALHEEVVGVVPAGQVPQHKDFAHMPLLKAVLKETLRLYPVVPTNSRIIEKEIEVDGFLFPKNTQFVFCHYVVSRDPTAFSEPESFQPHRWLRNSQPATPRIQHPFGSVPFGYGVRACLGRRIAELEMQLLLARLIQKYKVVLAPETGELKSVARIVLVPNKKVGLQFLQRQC
Method: (§1) For MS-based experiments, labelling was performed in a similar manner as described above in Example 2, maintaining the same concentrations of probes. Modifications to this protocol included using isotopically ‘light’ and ‘heavy’ SILAC cells that were also grown to near complete confluence prior to treatment. Isotopically light cells were treated with the non-clickable hydrazine probe (at the same concentration as the probe in ‘enrichment’ experiments) or the probe in the presence of 10-fold excess non-clickable hydrazine probe as a competitor (in ‘competition’ experiments). Isotopically heavy cells were treated with the probe for both types of experiments. These treatments were performed in non-SILAC media. Following treatments, cells were washed with cold PBS to remove the probe-containing media, harvested by scraping, collected by centrifugation (1,400 g, 3 min, 4° C.), washed again by resuspension in cold PBS and frozen as pellets at −80° C. until use.
(§2) The fractionated equimolar mixture of heavy and light soluble proteomes (1-1.5 mg) was diluted to 1 mL in PBS. Click reactions were scaled accordingly (except for biotin-azide) to maintain final concentrations of 0.1 mM TBTA, 1 mM CuSO4, 100 μM biotin-azide (10 mM in DMSO) and 1 mM TCEP. The mixture was vortexed and placed on a rotator at ambient temperature for 1 hour. Sequential addition of and mixture with pre-chilled methanol (MeOH, 2 mL), chloroform (CHCl3, 0.5 mL) and PBS (1 mL) on ice quenched the reaction. The precipitated proteome was centrifuged (5,000 g, 10 min, 4° C.) to fractionate the protein interphase from the organic and aqueous solvent layers. The protein pellet was washed with cold 1:1 MeOH:CHCl3 (3×1 mL), mildly sonicated in cold 4:1 MeOH:CHCl3 (2.5 mL) and pelleted once more by centrifugation (5,000 g, 10 min, 4° C.) to ensure click reagents were efficiently removed.
(§3) Heavy and light parent ion chromatograms associated with successfully identified peptides were extracted and compared using CIMAGE software as previously described^69. At least one ion of a co-eluting heavy-light pair must be accurately identified from a fragmentation event that occurred within the retention time window (±10 min) of parent ion elution. To ensure that the correct pair of peaks is quantified, chromatograms are extracted within a 10 ppm error tolerance of the predicted m/z, the signal-to-noise ratio must be >2.5 and the ‘co-elution correlation score’ and ‘envelope correlation score’ must have R^2 values ≥0.8. In addition, peptides detected as ‘singletons,’ where only the heavy ion of a peptide pair was identified, but for which passed all other filtering parameters, are given a default assigned ratio of ‘20,’ which is defined as any measured ratio that is ≥20.
(§4) To further eliminate false positives and any stochastic variability in the data, protein ratios were then determined by the median peptide ratio derived from three or more unique quantified peptides. Protein ratios that complied with these criteria from a single experiment were then averaged with ratios acquired from ≥3 replicates to provide final values for each type of experiment in both cell lines with both probes. […] Most importantly, there are no robustly measured ratios for proteins identified as probe 1 targets that had measured ratios of ˜1 with probe 2. Probe targets in HEK293T and MDA-MB-231 cells represent data combined from ≥3 independent biological replicates with each cell type performed with several independent batches of synthesized probes over a period of almost two years.
(§5) Analogous experiments were also performed with the aryl hydrazine probe 2 (1 mM, 0.5 hour), which furnished a larger list of high-reactivity proteins (33 in total; Table 3) that contained several of the targets of probe 1 (compared in Table 4), as well as additional proteins that may reflect an expanded chemical reactivity for probe 2.

[2] = biological target: T2, PTGR2 Prostaglandin reductase 2 (Q8N8N7) (Homo sapiens, UniProt Q8N8N7); conditions: SILAC H/L, MDA-MB-231
T2 construct: endogenous in cells; host or cells: HEK293T or MDA-MB-231
T2 sequence (Q8N8N7 whole entry): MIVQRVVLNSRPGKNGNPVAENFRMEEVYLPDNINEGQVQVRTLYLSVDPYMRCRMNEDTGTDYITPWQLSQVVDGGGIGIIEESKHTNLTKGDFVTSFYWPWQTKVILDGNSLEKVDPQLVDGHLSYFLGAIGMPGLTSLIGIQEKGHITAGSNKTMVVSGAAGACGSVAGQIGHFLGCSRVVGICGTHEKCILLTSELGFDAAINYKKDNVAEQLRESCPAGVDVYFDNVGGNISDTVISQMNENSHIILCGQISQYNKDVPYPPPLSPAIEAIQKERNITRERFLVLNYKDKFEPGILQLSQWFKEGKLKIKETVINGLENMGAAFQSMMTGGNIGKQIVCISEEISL
Method: as §1, §2, §3, §4, §5

[3] = biological target: T3, KDM5C Lysinespecific demethylase 5C (P41229) (Homo sapiens, UniProt P41229); conditions: SILAC H/L, HEK293T
T3 construct: In Situ Labelling of Cells with Hydrazine Probes for MS Experiments; endogenous in cells; host or cells: HEK293T and/or MDA-MB-231
Method: as §1, §2, §3, §4, §5

[4] = biological target: T4, PLBD2 Putative phospholipase Blike 2 (Q8NHP8) (Homo sapiens, UniProt Q8NHP8); conditions: SILAC H/L, MDA-MB-231
T4 construct: endogenous in cells; host or cells: HEK293T or MDA-MB-231
Method: as §1, §2, §3, §4, §5

[5] = biological target: T5, ACAA1 3ketoacylCoA thiolase, peroxisomal (P09110) (Homo sapiens, UniProt P09110); conditions: SILAC H/L, MDA-MB-231
T5 construct: endogenous in cells; host or cells: HEK293T or MDA-MB-231
Method: as §1, §2, §3, §4, §5

NEU1 Sialidase1 (Q99519) = biological target: T6, NEU1 Sialidase1 (Q99519) (Homo sapiens, UniProt Q99519); conditions: SILAC H/L, MDA-MB-231
T6 construct: endogenous in cells; host or cells: HEK293T or MDA-MB-231
Method: as §1, §2, §3, §4, §5

[6] = biological target: T7, CYP51A1 Lanosterol 14alpha demethylase (Q16850) (Homo sapiens, UniProt Q16850); conditions: SILAC H/L, HEK293T
T7 construct: In Situ Labelling of Cells with Hydrazine Probes for MS Experiments; endogenous in cells; host or cells: HEK293T and/or MDA-MB-231
T7 sequence (Q16850 whole entry): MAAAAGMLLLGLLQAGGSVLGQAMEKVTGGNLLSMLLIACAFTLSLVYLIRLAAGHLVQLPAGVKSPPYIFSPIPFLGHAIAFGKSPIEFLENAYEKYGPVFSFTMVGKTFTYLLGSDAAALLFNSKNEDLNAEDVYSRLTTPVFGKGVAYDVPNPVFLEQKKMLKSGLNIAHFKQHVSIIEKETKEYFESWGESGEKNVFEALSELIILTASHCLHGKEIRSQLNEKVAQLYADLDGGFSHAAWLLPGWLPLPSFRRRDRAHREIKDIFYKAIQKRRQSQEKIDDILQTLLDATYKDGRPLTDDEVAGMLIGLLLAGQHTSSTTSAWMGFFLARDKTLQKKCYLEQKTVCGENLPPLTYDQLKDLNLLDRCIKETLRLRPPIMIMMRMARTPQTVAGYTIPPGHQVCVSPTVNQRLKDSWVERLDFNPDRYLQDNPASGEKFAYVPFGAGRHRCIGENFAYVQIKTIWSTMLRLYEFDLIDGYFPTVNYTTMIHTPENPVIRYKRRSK
Method: as §1, §2, §3, §4, §5

[7] = biological target: T8, KDM1B Lysinespecific histone demethylase 1B (Q8NB78) (Homo sapiens, UniProt Q8NB78); conditions: SILAC H/L, HEK293T
T8 construct: In Situ Labelling of Cells with Hydrazine Probes for MS Experiments; endogenous in cells; host or cells: HEK293T and/or MDA-MB-231
T8 sequence (Q8NB78 whole entry): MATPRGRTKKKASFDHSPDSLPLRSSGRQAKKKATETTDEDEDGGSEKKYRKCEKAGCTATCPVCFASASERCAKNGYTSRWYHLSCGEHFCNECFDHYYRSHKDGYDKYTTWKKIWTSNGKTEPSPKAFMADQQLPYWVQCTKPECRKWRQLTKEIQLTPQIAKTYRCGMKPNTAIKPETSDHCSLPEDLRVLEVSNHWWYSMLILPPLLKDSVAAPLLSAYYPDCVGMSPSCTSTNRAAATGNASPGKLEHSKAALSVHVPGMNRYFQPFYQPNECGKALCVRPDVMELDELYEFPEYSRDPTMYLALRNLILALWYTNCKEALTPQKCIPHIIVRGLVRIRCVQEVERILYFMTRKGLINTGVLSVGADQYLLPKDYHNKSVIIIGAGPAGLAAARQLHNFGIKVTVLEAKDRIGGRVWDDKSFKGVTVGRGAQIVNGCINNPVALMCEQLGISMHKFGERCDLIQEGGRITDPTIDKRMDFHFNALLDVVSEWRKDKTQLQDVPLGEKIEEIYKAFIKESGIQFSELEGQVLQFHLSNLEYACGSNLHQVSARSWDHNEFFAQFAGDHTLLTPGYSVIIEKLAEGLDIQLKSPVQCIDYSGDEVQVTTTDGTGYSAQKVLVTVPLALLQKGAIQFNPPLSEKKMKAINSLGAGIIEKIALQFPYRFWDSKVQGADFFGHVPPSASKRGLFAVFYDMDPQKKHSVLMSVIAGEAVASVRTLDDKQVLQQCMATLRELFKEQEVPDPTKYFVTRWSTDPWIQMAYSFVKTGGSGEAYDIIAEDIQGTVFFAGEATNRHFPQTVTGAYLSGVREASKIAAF
Method: as §1, §2, §3, §4, §5

[8] = biological target: T9, PYROXD2 Pyridine nucleotidedisulfide (Q8N2H3) (Homo sapiens, UniProt Q8N2H3); conditions: SILAC H/L, MDA-MB-231
T9 construct: In Situ Labelling of Cells with Hydrazine Probes for MS Experiments; endogenous in cells; host or cells: HEK293T and/or MDA-MB-231
T9 sequence (Q8N2H3 whole entry): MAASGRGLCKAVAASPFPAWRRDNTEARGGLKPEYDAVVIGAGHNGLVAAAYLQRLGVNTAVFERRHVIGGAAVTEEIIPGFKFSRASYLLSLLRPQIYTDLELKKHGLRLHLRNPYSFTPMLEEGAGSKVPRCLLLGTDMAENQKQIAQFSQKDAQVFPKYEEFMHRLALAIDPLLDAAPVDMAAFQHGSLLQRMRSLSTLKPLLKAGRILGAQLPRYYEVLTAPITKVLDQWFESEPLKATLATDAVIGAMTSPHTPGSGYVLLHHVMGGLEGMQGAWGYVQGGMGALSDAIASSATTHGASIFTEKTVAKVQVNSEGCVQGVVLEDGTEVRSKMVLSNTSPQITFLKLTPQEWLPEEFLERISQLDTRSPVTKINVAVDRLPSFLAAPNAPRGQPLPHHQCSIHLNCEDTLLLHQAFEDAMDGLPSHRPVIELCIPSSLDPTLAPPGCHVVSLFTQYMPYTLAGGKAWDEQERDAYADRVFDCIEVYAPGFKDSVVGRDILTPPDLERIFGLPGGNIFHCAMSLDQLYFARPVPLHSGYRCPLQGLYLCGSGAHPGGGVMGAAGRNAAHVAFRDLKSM
Method: as §1, §2, §3, §4, §5

CAT Catalase (P04040) = biological target: T10, CAT Catalase (P04040) (Homo sapiens, UniProt P04040); conditions: SILAC H/L, MDA-MB-231
T10 construct: endogenous in cells; host or cells: HEK293T or MDA-MB-231
T10 sequence (P04040 whole entry): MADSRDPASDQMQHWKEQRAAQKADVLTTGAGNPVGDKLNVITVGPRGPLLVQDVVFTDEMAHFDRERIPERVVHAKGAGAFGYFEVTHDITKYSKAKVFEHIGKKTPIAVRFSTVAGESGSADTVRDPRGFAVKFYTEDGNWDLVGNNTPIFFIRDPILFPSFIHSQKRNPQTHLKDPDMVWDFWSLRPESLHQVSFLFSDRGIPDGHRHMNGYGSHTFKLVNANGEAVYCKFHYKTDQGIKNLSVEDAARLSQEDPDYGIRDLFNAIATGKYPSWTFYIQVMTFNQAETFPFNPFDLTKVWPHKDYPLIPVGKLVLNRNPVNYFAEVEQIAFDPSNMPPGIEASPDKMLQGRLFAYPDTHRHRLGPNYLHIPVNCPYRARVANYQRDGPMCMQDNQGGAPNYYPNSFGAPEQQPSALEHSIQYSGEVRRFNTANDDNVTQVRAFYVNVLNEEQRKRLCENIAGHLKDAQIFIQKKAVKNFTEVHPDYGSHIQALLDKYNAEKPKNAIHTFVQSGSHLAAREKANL
Method: as §1, §2, §3, §4, §5

[9] = biological target: T11, ACOX3 Peroxisomal acylcoenzyme A oxidase 3 (O15254) (Homo sapiens, UniProt O15254); conditions: SILAC H/L, MDA-MB-231
T11 construct: endogenous in cells; host or cells: HEK293T or MDA-MB-231
T11 sequence (O15254 whole entry): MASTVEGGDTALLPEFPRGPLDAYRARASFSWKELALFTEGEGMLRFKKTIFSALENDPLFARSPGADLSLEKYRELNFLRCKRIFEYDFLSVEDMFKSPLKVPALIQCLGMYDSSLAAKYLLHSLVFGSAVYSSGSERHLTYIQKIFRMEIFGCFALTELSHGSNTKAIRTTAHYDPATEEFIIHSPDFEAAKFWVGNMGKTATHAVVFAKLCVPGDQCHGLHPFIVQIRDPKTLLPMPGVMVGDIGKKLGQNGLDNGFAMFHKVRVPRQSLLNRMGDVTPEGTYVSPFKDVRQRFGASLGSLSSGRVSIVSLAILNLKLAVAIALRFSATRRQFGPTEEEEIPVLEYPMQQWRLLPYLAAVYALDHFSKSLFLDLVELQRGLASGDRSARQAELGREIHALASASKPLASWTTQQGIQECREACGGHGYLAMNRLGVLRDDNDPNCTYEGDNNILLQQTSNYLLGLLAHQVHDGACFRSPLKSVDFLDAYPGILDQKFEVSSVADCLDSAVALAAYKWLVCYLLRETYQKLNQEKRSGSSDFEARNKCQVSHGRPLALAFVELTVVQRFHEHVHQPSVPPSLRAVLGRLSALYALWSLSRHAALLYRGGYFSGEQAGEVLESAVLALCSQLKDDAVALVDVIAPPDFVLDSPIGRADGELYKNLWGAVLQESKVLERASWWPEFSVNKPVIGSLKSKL
Method: as §1, §2, §3, §4, §5

[10] = biological target: T12, FADS2 Fatty acid desaturase 2 (O95864) (Homo sapiens, UniProt O95864); conditions: SILAC H/L, HEK293T
T12 construct: In Situ Labelling of Cells with Hydrazine Probes for MS Experiments; endogenous in cells; host or cells: HEK293T and/or MDA-MB-231
Method: as §1, §2, §3, §4, §5

[11] = biological target: T13, FADS1 Fatty acid desaturase 1 (O60427) (Homo sapiens, UniProt O60427); conditions: SILAC H/L, HEK293T
T13 construct: In Situ Labelling of Cells with Hydrazine Probes for MS Experiments; endogenous in cells; host or cells: HEK293T and/or MDA-MB-231
T13 sequence (O60427 whole entry): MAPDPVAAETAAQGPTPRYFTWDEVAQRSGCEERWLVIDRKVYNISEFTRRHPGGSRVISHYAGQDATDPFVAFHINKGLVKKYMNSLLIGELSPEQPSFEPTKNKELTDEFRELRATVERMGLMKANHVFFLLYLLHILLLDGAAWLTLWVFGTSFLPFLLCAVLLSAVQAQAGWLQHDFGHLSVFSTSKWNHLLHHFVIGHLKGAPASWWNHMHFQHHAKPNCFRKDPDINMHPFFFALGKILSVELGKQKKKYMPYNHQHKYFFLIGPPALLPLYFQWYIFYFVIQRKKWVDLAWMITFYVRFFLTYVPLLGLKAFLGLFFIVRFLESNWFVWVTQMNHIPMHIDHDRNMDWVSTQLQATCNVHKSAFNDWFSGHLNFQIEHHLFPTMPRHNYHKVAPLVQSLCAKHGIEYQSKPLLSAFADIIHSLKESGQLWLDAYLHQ
Method: as §1, §2, §3, §4, §5

[12] = biological target: T14, aminotransferase, mitoch (O15382) (Homo sapiens, UniProt O15382); conditions: SILAC H/L, MDA-MB-231
T14 construct: endogenous in cells; host or cells: HEK293T or MDA-MB-231
T14 sequence (O15382 28-392): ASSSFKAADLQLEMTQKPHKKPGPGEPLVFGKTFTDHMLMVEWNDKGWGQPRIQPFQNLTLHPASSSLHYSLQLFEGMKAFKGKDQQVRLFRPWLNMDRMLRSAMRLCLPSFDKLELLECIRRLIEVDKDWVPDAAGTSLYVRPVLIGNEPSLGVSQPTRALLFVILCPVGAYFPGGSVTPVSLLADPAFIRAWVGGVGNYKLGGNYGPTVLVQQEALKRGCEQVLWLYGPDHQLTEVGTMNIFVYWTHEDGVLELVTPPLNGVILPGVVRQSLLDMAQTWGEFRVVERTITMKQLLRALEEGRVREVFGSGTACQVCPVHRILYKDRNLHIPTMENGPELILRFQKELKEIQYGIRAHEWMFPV
Method: as §1, §2, §3, §4, §5

C#CCCNC(=O)c1ccc(NN)cc1.Cl [probe 2, N-(but-3-yn-1-yl)-4-hydrazinylbenzamide hydrochloride] was tested, and the enrichment ratioavg ([1]; probe 2 1 mM 0.5 h vs probe 4) was 20, the competition ratioavg ([1]; probe 2 vs probe 2+10x probe 4) was 3 and the enrichment ratioavg ([2]; probe 2 1 mM 0.5 h vs probe 4) was 15. For the same compound, the competition ratioavg ([2]; probe 2 vs probe 2+10x probe 4) was 1, the enrichment ratioavg ([3]; probe 2 1 mM 0.5 h vs probe 4) was 19 and the competition ratioavg ([3]; probe 2 vs probe 2+10x probe 4) was 3. It also gave an enrichment ratioavg ([4]; probe 2 1 mM 0.5 h vs probe 4) of 9, a competition ratioavg ([4]; probe 2 vs probe 2+10x probe 4) of 3 and an enrichment ratioavg ([5]; probe 2 1 mM 0.5 h vs probe 4) of 6. For the same compound, the competition ratioavg ([5]; probe 2 vs probe 2+10x probe 4) was 2, the enrichment ratioavg (NEU1 Sialidase1 (Q99519); probe 2 1 mM 0.5 h vs probe 4) was 5 and the competition ratioavg (NEU1 Sialidase1 (Q99519); probe 2 vs probe 2+10x probe 4) was 3. It also gave an enrichment ratioavg ([6]; probe 2 1 mM 0.5 h vs probe 4) of 14, a competition ratioavg ([6]; probe 2 vs probe 2+10x probe 4) of 6 and an enrichment ratioavg ([7]; probe 2 1 mM 0.5 h vs probe 4) of 17. It also gave a competition ratioavg ([7]; probe 2 vs probe 2+10x probe 4) of 2, an enrichment ratioavg ([8]; probe 2 1 mM 0.5 h vs probe 4) of 20 and a competition ratioavg ([8]; probe 2 vs probe 2+10x probe 4) of 20. It also gave an enrichment ratioavg (CAT Catalase (P04040); probe 2 1 mM 0.5 h vs probe 4) of 20, a competition ratioavg (CAT Catalase (P04040); probe 2 vs probe 2+10x probe 4) of 1 and an enrichment ratioavg ([9]; probe 2 1 mM 0.5 h vs probe 4) of 20. For the same compound, the competition ratioavg ([9]; probe 2 vs probe 2+10x probe 4) was 1, the enrichment ratioavg ([10]; probe 2 1 mM 0.5 h vs probe 4) was 20 and the competition ratioavg ([10]; probe 2 vs probe 2+10x probe 4) was 4. The enrichment ratioavg ([11]; probe 2 1 mM 0.5 h vs probe 4) was 20, the competition ratioavg ([11]; probe 2 vs probe 2+10x probe 4) was 4 and the enrichment ratioavg ([12]; probe 2 1 mM 0.5 h vs probe 4) was 15. The competition ratioavg ([12]; probe 2 vs probe 2+10x probe 4) was 2.
